Test results taken from patent US7833972B2, “Proteins and use thereof” (Takeda Pharmaceutical Company Limited, priority 2002, dated 2010).
Counter-ions that a name gives are not always drawn.

Experiments:
SST20-14 = test: Expression of SST20-14 mRNA in 3T3-L1 cell by insulin resistance inducing factor (TaqMan PCR); format: cell-based, mouse
Description: Analysis of Expression of Novel Secretory or Membrane Protein Gene by Insulin Resistance Inducing Factor
3T3-L1 cell was inoculated into 6-well plate at 4×10^5 cells/well of cell number and incubated on DMEM (Invitrogen) medium containing 10% fetal bovine serum (Invitrogen) at 37° C. for 5 days. The medium was exchanged to a differentiation medium [DMEM medium containing 250 nM dexamethasone (Sigma), 0.5 mM 1-methyl-3-isobutyl xanthine (Wako Pure Chemical Industries, Ltd.), 10 μg/ml insulin (Sigma) and 10% fetal bovine serum] and further incubated for 24 hours. In exchanging the medium to the differentiation medium, each of TNF-α (Genzyme Techne) at the concentration of 1 nM, 100 pM and 10 pM was added to the medium at the same time. After completing incubation, the medium was washed with PBS (Invitrogen), and the cells were collected. Total RNA was gathered from the collected cells using RNAeasy kit (Qiagen) according to the instructions attached to the kit. Using the gathered total RNA, expression amounts of SST20-14 and mRNA of 36B4 which is used as internal standard were quantified by TaqMan PCR (Applied Biosystems).

SST8-5 = test: Expression of SST8-5 mRNA in 3T3-L1 cell by an insulin sensitizer (TaqMan PCR); format: cell-based, mouse; details: 10 μM, 72 hours in differentiation medium in the presence of insulin; 36B4 mRNA internal standard
Description: Analysis of Expression of Novel Secretory or Membrane Protein Gene by an Insulin Sensitizer 3T3-L1 cell was inoculated into 6-well plate at 4×10^5 cells/well of cell number and incubated on DMEM (Invitrogen) medium containing 10% fetal bovine serum (Invitrogen) at 37° C. for 5 days. The medium was exchanged to a differentiation medium [DMEM medium containing 250 nM dexamethasone (Sigma), 0.5 mM 1-methyl-3-isobutyl xanthine (Wako Pure Chemical Industries, Ltd.), 10 μg/ml insulin (Sigma) and 10% fetal bovine serum]. In exchanging the medium to the differentiation medium, pioglitazone hydrochloride (10 μM, Takeda Pharmaceutical Company, Ltd.) which is an insulin sensitizer was added to the medium, and incubated for 72 hours in the presence of insulin. After completing incubation, the medium was washed with PBS (Invitrogen), and the cells were collected. Total RNA was gathered from the collected cells using RNAeasy kit (Qiagen) according to the instructions attached to the kit. Using the gathered total RNA, expression amounts of SST8-5 and mRNA of 36B4 which is used as internal standard were quantified by TaqMan PCR (Applied Biosystems). As a result, the expression amount of SST8-5 increased 2.4-fold by addition of pioglitazone hydrochloride as compared with control (pioglitazone hydrochloride free).

3T3-L1 cell = test: Differentiation of preadipocyte strain 3T3-L1 into mature adipocyte (oil red-O staining of lipid drop accumulation); format: cell-based; details: 3T3-L1 cell overexpressing SST20-14 (pCMV-SST20-14, Long form cDNA); differentiation medium 72 hours then 8 days; qualitative, microscopic observation
Description: Analysis of Action for Differentiation of Preadipocyte Strain 3T3-L1 into Mature Adipocyte
3T3-L1 cell was inoculated into 6-well plate at 2×10^5 cells/well of cell number, and incubated on DMEM (Invitrogen) medium containing 10% fetal bovine serum (Invitrogen) at 37° C. for 7 days, incubation solution was suctioned, and the well was washed twice with PBS (Invitrogen), and then 2 ml/well of OPTI-MEM (Invitrogen) was added thereto. OPTI-MEM (100 μl) and FuGENE™6 (10 μl, Roche) were mixed and stood still at room temperature for 5 minutes. Thereto was added […] of construct for expression pCMV-SST20-14 prepared by inserting SST20-14 (Long form) cDNA into EcoRI-HindIII cloning site of pCMV-Tag4A (Sigma) which is an expression plasmid, and the mixed solution was stood still at room temperature for 45 minutes. The solution containing the expression construct was added to the above-mentioned 3T3-L1 cell, and incubated at 37° C. for 6 hours, and then incubated on DMEM medium containing 10% fetal bovine serum at 37° C. for 40 hours. Then, the medium was exchanged to a differentiation medium [DMEM medium containing 250 nM dexamethasone (Sigma), 0.5 mM 1-methyl-3-isobutyl xanthine (Wako Pure Chemical Industries, Ltd.), 10 μg/ml insulin (Sigma) and 10% fetal bovine serum] and incubated for 72 hours. […]

Molecule: TNF-α
- reduction of expression amount of SST20-14 as compared with control (TNF-α free) (SST20-14; 1 nM TNF-α for 24 hours in differentiation medium, 36B4 mRNA internal standard): about 70%
- change of expression amount of SST20-14 with TNF-α concentration (SST20-14; TNF-α 1 nM, 100 pM and 10 pM, 24 hours in differentiation medium): changed depending on added TNF-α concentration

Molecule: CCc1ccc(CCOc2ccc(CC3SC(=O)NC3=O)cc2)nc1 (stereo not shown) [pioglitazone hydrochloride]
- increase of expression amount of SST8-5 as compared with control (pioglitazone hydrochloride free) (SST8-5): 2.4 fold

B1: SST20-14: mouse white adipose tissue-derived secretory or membrane protein, SEQ ID NO: 2; overexpressed from pCMV-SST20-14 construct (protein, listed as Mus musculus)
chain: MAGSRGLPLLLLVLQLFLGPVLPVRAPVFGRSDTPTLSPEENEFVEEENQPVLVLSSEEPEPGPATVDCPRDCACSQEGVVDCGGIDLREFPGDLPEHTNHLSLQNNQLEKIYPEELSRLQRLETLNLQNNRLTSRGLPEEAFEHLTSLNYLYLANNKLTLAPRFLPNALISVDFAANYLTKIYGLTFGQKPNLRSVYLHNNKLADAGLPDHMFNGSSNVEILILSSNFLRHVPKHLPPALYKLHLKNNKLEKIPPGAFSELSNLRELYLQNNYLTDEGLDNETFWKLSSLEYLDLSSTNLSRVPAGLPRSLVLLHLEKNAIQSVEADVLTPIRNLEYLLLHSNQLQAKGIHPLAFQGLKKLHTVHLYNNALERVPSGLPRRVRTLMILHNQITGIGREDFATTYFLEELNLSYNRITSPQMHRDAFRKLRLLRSLDLSGNRLQTLPPGLPKNVHVLKVKRNELAALARGALAGMAQLRELYLTGNRLRSRALGPRAWVDLAGLQLLDIAGNQLTEVPEGLPPSLEYLYLQNNKISAVPANAFDSTPNLKGIFLRFNKLAVGSVVESAFRRLKHLQVLDIEGNFEFGNGSKDKDEEEEEEEEEEDEEEETR
- accumulation of lipid drop as compared with control 3T3-L1 cell (3T3-L1 cell): reduced to a half or less
